Assay results from PMC2911475 (Journal of molecular biology, 2009).

Target: FcsSBP (Fucose Solute Binding Protein)
Assay: isothermal titration calorimetry
Set-up: species or system Streptococcus pneumoniae
Details: 50 mM Tris HCl pH 7.5, 25 °C, one-site model

Structure (SMILES) | Ka | Ka (crystal structure of SeMet protein)
C[C@@H]1O[C@@H](O[C@H]2C(O)O[C@H](CO)[C@H](O)[C@@H]2O[C@H]2O[C@H](CO)[C@H](O)[C@H](O)[C@H]2O)[C@@H](O)[C@H](O)[C@@H]1O (some centres unmarked) [B-trisaccharide, Galα1–3(Fucα1–2)Gal] | 1.15 (±0.27) × 10^6 | 
CC(=O)N[C@H]1[C@@H](O[C@H]2[C@@H](O)[C@@H](CO)OC(O)[C@@H]2O[C@@H]2O[C@@H](C)[C@@H](O)[C@@H](O)[C@@H]2O)O[C@H](CO)[C@H](O)[C@@H]1O (some centres unmarked) [A-trisaccharide, GalNAcα1–3(Fucα1–2)Gal] |  | 1.01 (±0.16) × 10^6
